Data on three compounds can be found in US20060004037A1, “Novel tricyclic compounds and related methods of treatment” (TransForm Pharmaceuticals, Inc., priority 2004, published 2006).

Converted amounts (≈) assume the structure as drawn. Structures can show the parent of a compound that is named as a salt.

A short description of one series: Dynamic vapor sorption. Type of series: physicochemical.
A short description of series [1]: Single excipient solubility screen. Type of series: physicochemical. From the text:
A single excipient screen was completed in an attempt to find an appropriate excipient for a liquid formulation of LSN 487355. […]

The nature of a further series: pKa. Type of series: physicochemical. Conditions: free base form.
The next series is described as follows: Hygroscopicity (VTI). Format: physicochemical. Conditions: free base form.
Series [2] is described as follows: Solubility in various solvents/solubilizing mixtures. Format: physicochemical. The text has this:
The solubility of LSN 487355 in a variety of vehicles is illustrated in Table III.

Another series in a line: Caco-2 permeability. Type of series: in vitro ADME. Conditions: human, Caco-2, free base form; for efflux ratio: read-out: B-A/A-B ratio. A general note: Passage across Caco-2 layers is used to estimate intestinal permeability.
The test system of another series is Caco-2. The series is described as follows: Caco-2 permeability. Type of series: in vitro ADME. The following applies: free base form.

A word on the solubility: it is the dissolved amount per volume that the medium holds. As for `Cc1onc2c1c(=O)n([C@H]1CCC[C@@H](CNC(=O)c3ccc(F)nc3)C1)c1cccc(Cl)c21` [LSN 487355 phosphate salt], in the series “Dynamic vapor sorption” (dynamic vapor sorption), the Moisture sorption isotherm entry is given as “significant moisture sorption isotherm” and the “Relative humidity at which deliquescence begins” value is listed as 80-90 % RH. In addition, the “Crystallinity in dynamic vapor sorption” value in “Dynamic vapor sorption” (equilibrated under flowing nitrogen (0% RH)) was “loss of crystallinity”. Also, in series [1] (oil or lipid, excipient labrasol (FIG. 13)), the solubility is at least 20000 µg/mL. Also, the solubility in series [1] (organic solvent or mixture, excipient PEG-600 (FIG. 13)) is at least 20000 µg/mL.
As a reminder, the pKa is the pH at which an ionisable group is half protonated. What is called Papp is a coefficient for how fast a substance crosses the barrier. Regarding `Cc1onc2c1c(=O)n([C@H]1CCC[C@@H](CNC(=O)c3ccc(F)nc3)C1)c1cccc(Cl)c21` [LSN 487355], the pKa in “pKa” is 3.77. Besides, in the series “Hygroscopicity (VTI)”, the “Hygroscopicity (VTI)” value was “Non-hygroscopic”. The solubility in series [2] (4% DMSO in deionized water, kinetic from dmso stock, 4% DMSO, compound dissolved in solvent first, then deionized water added) was 2 µg/mL (≈ 0.00427 mM); in series [2] (5% N-methyl-2-pyrrolidone in deionized water, aqueous with cosolvent or surfactant or cyclodextrin, kinetic from dmso stock, 5% N-methyl-2-pyrrolidone, compound dissolved in solvent first, then deionized water added), 4 µg/mL (≈ 0.00853 mM); in series [2] (10% DMSO in deionized water, aqueous with cosolvent or surfactant or cyclodextrin, kinetic from dmso stock, 10% DMSO, compound dissolved in solvent first, then deionized water added), 4 µg/mL (≈ 0.00853 mM); in series [2] (10% N-methyl-2-pyrrolidone in deionized water, aqueous with cosolvent or surfactant or cyclodextrin, kinetic from dmso stock, 10% N-methyl-2-pyrrolidone, compound dissolved in solvent first, then deionized water added), 30 µg/mL (≈ 0.064 mM); in series [2] (Capmul PG8, oil or lipid) it was 12000 to 15000 µg/mL (≈ 25.6 to 32 mM); in series [2] (DMA, organic solvent or mixture), 208000 to 416000 µg/mL (≈ 444 to 887 mM). The solubility in series [2] (Ethanol, organic solvent or mixture) was 1400 µg/mL (≈ 2.99 mM); in series [2] (Ethyl Oleate, oil or lipid) it was under 2000 µg/mL; in series [2] (Ethyl acetate, organic solvent or mixture) it was 3 µg/mL (≈ 0.0064 mM); in series [2] (Glycofurol, organic solvent or mixture), over 2000 µg/mL; in series [2] (Labrafac Hydro WL 219, oil or lipid), over 2000 µg/mL; in series [2] (Labrafac Lipophile WL 1349, oil or lipid), under 2000 µg/mL. The solubility in series [2] (Labrafil M1944CS, oil or lipid) was under 2000 µg/mL; in series [2] (Labrafil M2125CS, oil or lipid), under 2000 µg/mL; in series [2] (Labrasol, oil or lipid), 4000 to 5000 µg/mL (≈ 8.53 to 10.7 mM); in series [2] (NMP, organic solvent or mixture) it was over 563000 µg/mL; in series [2] (Olive oil, oil or lipid) it was under 2000 µg/mL; in series [2] (PEG 300, organic solvent or mixture), over 2000 µg/mL. The solubility in series [2] (Phosphal 50 PG, oil or lipid) was over 2000 µg/mL; in series [2] (Phosphal 53 MCT, oil or lipid) it was over 2000 µg/mL; in series [2] (Propylene Glycol, organic solvent or mixture), under 2000 µg/mL; in series [2] (Safflower oil, oil or lipid), under 2000 µg/mL; in series [2] (Soybean oil, oil or lipid), under 2000 µg/mL; in series [2] (organic solvent or mixture, DMSO, measured visually at about 50 mg/mL, all compound dissolved), at least 51000 µg/mL. For the same compound, the solubility in series [2] (organic solvent or mixture, N-methyl-2-pyrrolidone, measured visually at about 50 mg/mL, all compound dissolved) was at least 52000 µg/mL. For the same compound, the apparent permeability coefficient (Papp) in the series “Caco-2 permeability” turned out to be 7.9 ×10⁻⁶ cm/s. For the same compound, the efflux ratio in “Caco-2 permeability” stood at 2.3. In the series with Caco-2, the Permeability class entry is recorded as “Borderline high”.
For `Cc1onc2c1c(=O)n([C@H]1CCC[C@@H](NC(=O)[C@@H](O)c3ccc(F)nc3)C1)c1cccc(Cl)c21` [LSN 509207], the “Hygroscopicity (VTI)” value in the series “Hygroscopicity (VTI)” is “Non-hygroscopic”. Moreover, in the series “Caco-2 permeability”, the apparent permeability coefficient (Papp) was found to be 7.4 ×10⁻⁶ cm/s and the efflux ratio came out at 2.7. Moreover, the Permeability class entry in the series with Caco-2 is reported as “Borderline high”.
